Test results taken from ChEMBL document CHEMBL5236568, “Discovery of 3,4-dihydropyrimido[4,5-d]pyrimidin-2(1H)-one and 3,4-dihydropyrido[2,3-d]pyrimidin-2(1H)-one derivatives as novel ENPP1 inhibitors” (Bioorg Med Chem Lett, 2022).

How the values were obtained:
[1] = target: T1, Ectonucleotide pyrophosphatase/phosphodiesterase family member 1 (Homo sapiens) (UniProt P22413); assay: Inhibition of ENPP1 (unknown origin) at 10 uM relative to control
T1 sequence (whole entry): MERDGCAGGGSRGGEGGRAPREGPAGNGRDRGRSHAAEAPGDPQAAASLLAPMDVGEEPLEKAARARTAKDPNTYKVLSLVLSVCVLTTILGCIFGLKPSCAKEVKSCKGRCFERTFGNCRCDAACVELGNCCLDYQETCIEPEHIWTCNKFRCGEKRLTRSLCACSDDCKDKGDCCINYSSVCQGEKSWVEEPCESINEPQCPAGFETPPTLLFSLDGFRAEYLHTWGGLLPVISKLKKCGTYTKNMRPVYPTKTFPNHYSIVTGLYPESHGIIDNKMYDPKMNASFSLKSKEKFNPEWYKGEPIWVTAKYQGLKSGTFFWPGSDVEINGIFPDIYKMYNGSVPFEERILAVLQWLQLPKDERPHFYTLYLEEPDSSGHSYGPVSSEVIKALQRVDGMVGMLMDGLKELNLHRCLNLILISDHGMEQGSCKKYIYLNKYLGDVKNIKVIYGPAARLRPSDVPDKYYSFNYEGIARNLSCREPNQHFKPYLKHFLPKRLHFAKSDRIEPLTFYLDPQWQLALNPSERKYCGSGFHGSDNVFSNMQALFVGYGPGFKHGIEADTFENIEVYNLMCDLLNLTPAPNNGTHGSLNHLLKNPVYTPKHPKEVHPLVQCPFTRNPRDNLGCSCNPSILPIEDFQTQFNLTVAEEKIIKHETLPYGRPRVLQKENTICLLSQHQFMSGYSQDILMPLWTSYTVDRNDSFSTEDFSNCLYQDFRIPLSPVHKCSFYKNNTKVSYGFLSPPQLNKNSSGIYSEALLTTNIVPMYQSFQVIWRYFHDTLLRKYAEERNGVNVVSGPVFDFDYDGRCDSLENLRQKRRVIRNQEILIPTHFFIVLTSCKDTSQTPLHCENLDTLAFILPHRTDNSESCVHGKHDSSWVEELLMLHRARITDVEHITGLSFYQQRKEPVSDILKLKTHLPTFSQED

[2] = target: T2, Ectonucleotide pyrophosphatase/phosphodiesterase family member 1 (Homo sapiens, UniProt P22413); assay: Inhibition of ENPP1 (unknown origin)
T2 sequence (P22413 whole entry): T1 sequence (whole entry)

CYP2C19 = CYP2C19 (Homo sapiens, UniProt P33261); assay: Inhibition of CYP2C19 (unknown origin) assessed as remaining activity at 10 uM relative to control; format: ADME; conditions: read-out: Activity
CYP2C19, sequence (P33261 whole entry): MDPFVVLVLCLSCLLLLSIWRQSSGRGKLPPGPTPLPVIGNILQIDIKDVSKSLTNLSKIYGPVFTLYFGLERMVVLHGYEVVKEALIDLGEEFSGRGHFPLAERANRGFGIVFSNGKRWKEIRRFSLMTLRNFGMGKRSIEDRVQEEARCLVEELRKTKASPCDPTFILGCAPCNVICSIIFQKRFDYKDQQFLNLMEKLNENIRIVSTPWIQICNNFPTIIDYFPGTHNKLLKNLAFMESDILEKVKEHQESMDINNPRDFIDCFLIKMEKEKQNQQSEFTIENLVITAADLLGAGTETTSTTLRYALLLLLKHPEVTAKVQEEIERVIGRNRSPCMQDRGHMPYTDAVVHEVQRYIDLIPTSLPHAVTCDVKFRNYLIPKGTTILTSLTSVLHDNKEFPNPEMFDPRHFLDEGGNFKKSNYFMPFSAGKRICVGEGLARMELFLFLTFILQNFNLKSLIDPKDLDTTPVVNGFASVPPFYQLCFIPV

CYP1A2 = target: T3, CYP1A2 (Homo sapiens, UniProt P05177); assay: Inhibition of CYP1A2 (unknown origin) assessed as remaining activity at 10 uM relative to control; format: ADME; conditions: read-out: Activity
T3 sequence (P05177 whole entry): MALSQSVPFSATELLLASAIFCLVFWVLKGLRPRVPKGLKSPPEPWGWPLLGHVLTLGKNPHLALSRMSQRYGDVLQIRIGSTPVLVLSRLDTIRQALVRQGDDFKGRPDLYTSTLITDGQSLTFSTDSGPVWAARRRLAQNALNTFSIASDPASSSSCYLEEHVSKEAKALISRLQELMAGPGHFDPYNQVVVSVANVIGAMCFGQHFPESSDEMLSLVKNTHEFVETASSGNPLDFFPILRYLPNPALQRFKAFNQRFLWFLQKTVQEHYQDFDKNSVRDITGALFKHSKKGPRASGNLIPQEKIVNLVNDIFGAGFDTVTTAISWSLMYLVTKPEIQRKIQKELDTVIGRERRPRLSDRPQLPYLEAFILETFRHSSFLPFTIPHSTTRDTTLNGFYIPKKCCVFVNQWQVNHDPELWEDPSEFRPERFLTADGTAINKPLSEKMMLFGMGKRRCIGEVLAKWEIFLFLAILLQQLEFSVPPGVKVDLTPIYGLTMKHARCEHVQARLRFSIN

[3] = Metabolic stability in human liver microsomes assessed as compound remaining at 1 uM after 30 mins; format: ADME, Microsome; conditions: read-out: Stability
CYP3A4 = CYP3A4 (Homo sapiens, UniProt P08684); assay: Inhibition of CYP3A4 (unknown origin) assessed as remaining activity at 10 uM relative to control; format: ADME; conditions: read-out: Activity
CYP3A4, sequence (P08684 whole entry): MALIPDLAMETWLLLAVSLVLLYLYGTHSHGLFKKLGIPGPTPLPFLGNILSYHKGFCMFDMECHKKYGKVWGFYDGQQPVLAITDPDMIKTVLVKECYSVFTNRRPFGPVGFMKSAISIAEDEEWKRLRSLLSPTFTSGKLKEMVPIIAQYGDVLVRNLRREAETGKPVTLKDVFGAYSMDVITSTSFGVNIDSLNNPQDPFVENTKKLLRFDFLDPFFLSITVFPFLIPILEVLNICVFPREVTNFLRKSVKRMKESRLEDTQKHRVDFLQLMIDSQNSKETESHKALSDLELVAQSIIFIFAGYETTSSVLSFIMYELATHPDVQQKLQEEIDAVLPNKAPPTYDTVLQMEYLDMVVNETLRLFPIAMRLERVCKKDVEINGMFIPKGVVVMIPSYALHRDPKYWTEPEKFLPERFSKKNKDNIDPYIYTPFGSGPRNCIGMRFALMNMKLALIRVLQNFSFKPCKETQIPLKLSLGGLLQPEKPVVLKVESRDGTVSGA

CYP2D6 = CYP2D6 (Homo sapiens, UniProt P10635); assay: Inhibition of CYP2D6 (unknown origin) assessed as remaining activity at 10 uM relative to control; format: ADME; conditions: read-out: Activity
CYP2D6, sequence (P10635 whole entry): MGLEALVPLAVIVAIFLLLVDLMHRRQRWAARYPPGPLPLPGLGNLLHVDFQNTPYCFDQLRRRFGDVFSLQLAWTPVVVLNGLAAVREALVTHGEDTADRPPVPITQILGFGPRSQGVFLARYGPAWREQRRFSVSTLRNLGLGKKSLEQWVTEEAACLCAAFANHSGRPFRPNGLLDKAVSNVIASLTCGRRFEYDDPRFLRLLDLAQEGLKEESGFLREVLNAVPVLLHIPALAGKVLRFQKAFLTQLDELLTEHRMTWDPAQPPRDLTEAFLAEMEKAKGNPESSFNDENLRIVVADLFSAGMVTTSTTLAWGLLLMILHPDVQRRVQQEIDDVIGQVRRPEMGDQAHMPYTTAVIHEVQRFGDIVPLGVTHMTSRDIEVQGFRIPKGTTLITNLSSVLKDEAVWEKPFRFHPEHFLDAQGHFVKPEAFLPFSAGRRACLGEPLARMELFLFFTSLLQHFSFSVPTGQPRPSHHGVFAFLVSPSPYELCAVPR

CYP2C9 = CYP2C9 (Homo sapiens, UniProt P11712); assay: Inhibition of CYP2C9 (unknown origin) assessed as remaining activity at 10 uM relative to control; format: ADME; conditions: read-out: Activity
CYP2C9, sequence (P11712 whole entry): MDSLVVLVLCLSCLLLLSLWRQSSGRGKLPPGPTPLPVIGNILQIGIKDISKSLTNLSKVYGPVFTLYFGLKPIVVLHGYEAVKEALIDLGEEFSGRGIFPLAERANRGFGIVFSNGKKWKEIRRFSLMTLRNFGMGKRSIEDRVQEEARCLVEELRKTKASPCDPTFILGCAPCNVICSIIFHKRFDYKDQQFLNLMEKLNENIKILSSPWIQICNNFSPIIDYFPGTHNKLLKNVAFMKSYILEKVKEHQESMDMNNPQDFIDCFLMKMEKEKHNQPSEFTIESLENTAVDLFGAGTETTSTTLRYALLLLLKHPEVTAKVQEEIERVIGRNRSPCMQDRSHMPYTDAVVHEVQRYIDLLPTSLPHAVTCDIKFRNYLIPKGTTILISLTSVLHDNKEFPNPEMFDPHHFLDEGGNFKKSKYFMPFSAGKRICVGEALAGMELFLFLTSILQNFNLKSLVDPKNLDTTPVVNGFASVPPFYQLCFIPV

[4] = Metabolic stability in rat liver microsomes assessed as compound remaining at 1 uM after 30 mins; format: ADME, Microsome; conditions: read-out: Stability
[5] = Metabolic stability in mouse liver microsomes assessed as compound remaining at 1 uM after 30 mins; format: ADME, Microsome; conditions: read-out: Stability

SMILES | inhibition [1] [%] | IC50 [2] [nM] | other results
NS(=O)(=O)NCc1cccc(-c2ccnc3c2CNC(=O)N3)c1 | 20 | – | –
CN1Cc2c(-c3ccc(CN(C)S(N)(=O)=O)cc3)ccnc2NC1=O | 80 | 1160 | –
CN1Cc2c(-c3cccc(CNS(N)(=O)=O)c3)ccnc2NC1=O | 96 | 525 | –
CN1Cc2c(ncnc2N2CCC(NS(N)(=O)=O)CC2)NC1=O | 93 | 759 | –
CN1Cc2c(ncnc2-c2cccc(CNS(N)(=O)=O)c2)NC1=O | 99 | 171 | –
CN1Cc2c(ncnc2N2CCC(C)(CCNS(N)(=O)=O)CC2)NC1=O | 93 | 669 | –
CN1Cc2c(ncnc2N2CCC(C)(NS(N)(=O)=O)CC2)NC1=O | 98 | 236 | –
NS(=O)(=O)NCc1ccc(-c2ccnc3c2CN(C2CC2)C(=O)N3)cc1 | 35 | – | –
CN1Cc2c(ncnc2-c2ccc(CNS(N)(=O)=O)cc2)NC1=O | 97 | 452 | –
CN1Cc2c(ncnc2Nc2ccc(NS(N)(=O)=O)cc2)NC1=O | 67 | – | –
Cc1ccc(S(=O)(=O)NCc2cccc(-c3ncnc4c3CN(C)C(=O)N4)c2)cc1 | 68 | – | –
CN1Cc2c(ncnc2N2CCC(C)(CNS(N)(=O)=O)CC2)NC1=O | 100 | 3.7 | activity at 10 µM (CYP2C19): > 100%; activity at 10 µM (CYP1A2): 94.3%; remaining at 0.5 h, 1 µM [3]: 85.9%; activity at 10 µM (CYP3A4): 89.7%; activity at 10 µM (CYP2D6): 90.9%; activity at 10 µM (CYP2C9): 89.4%; remaining at 0.5 h, 1 µM [4]: 82.3%; remaining at 0.5 h, 1 µM [5]: 96.4%
CN1Cc2c(-c3ccc(CNS(N)(=O)=O)cc3)ccnc2N(Cc2ccccc2)C1=O | 0 | – | –
CN1Cc2c(ncnc2-c2ccc(CNS(N)(=O)=O)c(F)c2)NC1=O | 96 | 916 | –
CN1Cc2c(ncnc2N2CCC(CCNS(N)(=O)=O)CC2)NC1=O | 96 | 773 | –
CN1Cc2c(N3CCC(CCNS(N)(=O)=O)CC3)ncnc2N(C)C1=O | 62 | – | –
CN1Cc2c(ncnc2N2CCC(CNS(N)(=O)=O)CC2)NC1=O | 100 | 48 | –
CN1Cc2c(-c3ccc(CNS(N)(=O)=O)c(F)c3)ccnc2NC1=O | 99 | 32.3 | activity at 10 µM (CYP2C19): > 100%; activity at 10 µM (CYP1A2): > 100%; remaining at 0.5 h, 1 µM [3]: 86.9%; activity at 10 µM (CYP3A4): > 100%; activity at 10 µM (CYP2D6): > 100%; activity at 10 µM (CYP2C9): > 100%; remaining at 0.5 h, 1 µM [4]: 86.7%; remaining at 0.5 h, 1 µM [5]: 91.1%
NS(=O)(=O)Nc1cccc(-c2ccnc3c2CN(C2CC2)C(=O)N3)c1 | 62 | 7460 | –
CN1Cc2c(-c3cccc(NS(N)(=O)=O)c3)ccnc2NC1=O | 95 | 766 | –
NS(=O)(=O)NCc1ccc(-c2ccnc3c2CN(Cc2ccccc2)C(=O)N3)cc1 | 9 | – | –
CN1Cc2c(ncnc2-c2cccc(NS(N)(=O)=O)c2)NC1=O | 100 | 360 | –
CN1Cc2c(-c3ccc(CNS(N)(=O)=O)cc3)ccnc2N(C)C1=O | 96 | 326 | –
CN1Cc2c(ncnc2N2CCC3(CC2)CCN(S(N)(=O)=O)C3)NC1=O | 100 | 164 | –
CN1Cc2c(-c3cccc(CNS(C)(=O)=O)c3)ccnc2NC1=O | 15 | – | –
CN1Cc2c(NCc3ccc(NS(N)(=O)=O)cc3)ncnc2NC1=O | 100 | 45 | –
CN1Cc2c(-c3ccc(CNS(N)(=O)=O)cc3)ccnc2NC1=O | 100 | 389 | –
CN1Cc2c(ncnc2-c2cccc(CNS(C)(=O)=O)c2)NC1=O | 30 | – | –
Cc1ccc(S(=O)(=O)NCc2cccc(-c3ccnc4c3CN(C)C(=O)N4)c2)cc1 | 4 | – | –
